Results as given in publication PMC8232621, “Antimicrobial Activity of a Library of Thioxanthones and Their Potential as Efflux Pump Inhibitors” (Pharmaceuticals, 2021).
Read-outs that look alike come from different tables or passages of the source.

How the values were obtained:
[1] = Cytotoxicity in NIH/3T3 cell line (MTT assay); type: cell-based; conditions: mouse, read-out: IC50 (µM) ± SD, cytotoxicity
Description: Before each cytotoxicity assay using this cell line, cells were seeded in untreated 96-well flat-bottom microtiter plates, following a 4-hour incubation period in a humidified atmosphere (5% CO2, 95% air) at 37 °C [47]. […] Prior to the assay, the cells were seeded for 4 h using 1 × 10^4 cells/well. […] The plates were incubated for 24 h, after which a solution of MTT in PBS was added to each well and incubated for another 4 h. After this, 100 μL of SDS (10% in a 0.01 M HCl solution) was added to each well and incubated overnight at 37 °C. Doxorubicin was used as a positive control. Cell growth was determined in quadruplicate by measuring OD at λ = 540 nm (reference 630 nm) in a Multiscan EX ELISA reader (Thermo Labsystems, Cheshire, WA, USA). […] (2) 100−ODsample−ODmedium control/ODcell control−ODmedium control×100 […]

P-glycoprotein (P-gp) = target: T1, P-glycoprotein (P-gp) (Homo sapiens, UniProt P08183); test: P-gp transport activity, RHO 123 accumulation in Caco-2 cells in presence of compounds (90 min); type: cell-based; conditions: 20 µM only during the 90 min incubation with RHO 123
T1 construct: P-glycoprotein (P-gp) activity assessed by fluorescence spectroscopy in Caco-2 cells; endogenous in cells; host or cells: Caco-2 cells (ECACC)
T1 sequence (P08183 whole entry): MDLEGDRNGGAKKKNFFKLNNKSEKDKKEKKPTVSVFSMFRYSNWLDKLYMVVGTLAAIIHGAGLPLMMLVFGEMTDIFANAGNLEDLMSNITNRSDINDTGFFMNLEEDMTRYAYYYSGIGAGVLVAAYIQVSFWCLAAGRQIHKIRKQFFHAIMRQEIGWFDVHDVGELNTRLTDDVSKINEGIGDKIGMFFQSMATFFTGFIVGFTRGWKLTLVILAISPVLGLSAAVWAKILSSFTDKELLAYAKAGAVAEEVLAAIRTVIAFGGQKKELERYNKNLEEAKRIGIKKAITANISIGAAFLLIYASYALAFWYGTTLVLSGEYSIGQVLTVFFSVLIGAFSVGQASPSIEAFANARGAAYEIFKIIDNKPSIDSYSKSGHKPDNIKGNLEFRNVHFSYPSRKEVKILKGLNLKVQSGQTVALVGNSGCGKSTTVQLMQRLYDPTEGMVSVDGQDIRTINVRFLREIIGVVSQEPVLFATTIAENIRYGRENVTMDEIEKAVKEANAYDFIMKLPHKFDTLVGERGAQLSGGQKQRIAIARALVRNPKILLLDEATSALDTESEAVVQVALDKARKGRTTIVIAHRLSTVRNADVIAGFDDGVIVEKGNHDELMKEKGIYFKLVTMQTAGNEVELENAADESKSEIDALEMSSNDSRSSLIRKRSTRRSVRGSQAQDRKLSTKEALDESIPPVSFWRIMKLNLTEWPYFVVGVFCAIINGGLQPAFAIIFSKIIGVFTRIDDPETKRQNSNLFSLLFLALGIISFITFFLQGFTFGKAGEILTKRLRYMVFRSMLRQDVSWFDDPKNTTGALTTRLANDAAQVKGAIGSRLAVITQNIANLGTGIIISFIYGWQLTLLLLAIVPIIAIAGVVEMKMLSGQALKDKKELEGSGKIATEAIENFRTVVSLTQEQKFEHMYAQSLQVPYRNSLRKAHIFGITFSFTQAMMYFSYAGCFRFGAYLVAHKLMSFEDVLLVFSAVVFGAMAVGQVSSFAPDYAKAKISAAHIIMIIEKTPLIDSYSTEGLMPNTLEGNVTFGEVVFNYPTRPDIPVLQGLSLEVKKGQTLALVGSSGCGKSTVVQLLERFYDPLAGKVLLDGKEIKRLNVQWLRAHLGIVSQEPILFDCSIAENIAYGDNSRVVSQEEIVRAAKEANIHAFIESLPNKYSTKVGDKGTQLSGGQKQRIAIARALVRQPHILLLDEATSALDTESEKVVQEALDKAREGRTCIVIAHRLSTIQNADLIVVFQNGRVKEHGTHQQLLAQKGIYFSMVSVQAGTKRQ
Description: Concerning the second experimental approach used to evaluate the effects of the compounds in P-gp activity, Caco-2 cells were exposed to thioxanthone derivatives (20 µM) only during the 90 min of incubation with the fluorescent substrate (RHO 123, 10 µM). This experimental approach aims to evaluate the potential immediate effects of thioxanthone derivatives on P-gp activity as a result of a direct inhibition or activation of the protein, i.e., not to change the protein expression. […] In contrast, compounds 12 and 13 caused a significant and immediate decrease in P-gp activity (to 82 and 85%, respectively), when compared to control cells (0 µM).
The effect of the tested compounds on P-gp activity was evaluated using rhodamine 123 (RHO 123) as a P-gp fluorescent substrate, and ZOS as a specific third-generation P-gp inhibitor. Indeed, several studies report the use of RHO 123 accumulation/efflux assays for the direct assessment of P-gp activity through the quantification of the intracellular fluorescence of the P-gp substrate. Caco-2 cells were seeded in 24-well plates at a density of 60,000 cells/cm^2 and, three days after seeding, and submitted to two different protocols of RHO 123 accumulation: 1) RHO 123 accumulation in cells pre-exposed to the compounds (20 µM) for 24 h; 2) RHO 123 accumulation in the presence of the tested compounds (20 µM) for 90 min, as previously described.
On the other hand, in the second protocol, the cells were exposed to the tested compounds 30 min prior to addition of the P-gp fluorescent substrate, RHO 123, and remained in contact with the cells only during the substrate accumulation period, thus aiming to detect immediate effects of the tested compounds on P-gp activity as a result of a direct P-gp activation or inhibition. For that purpose, three days after seeding, the cell culture medium was removed, and the cells submitted to the following procedures:
RHO 123 accumulation under normal conditions (NA): pre-exposure to compounds (20 μM), prepared in HBSS (+/+), for 30 min at 37 °C, followed by incubation with RHO 123 (5 μM) for 90 min, at 37 °C, in a humidified 5% CO2 and 95% O2 air atmosphere. Control cells were only exposed to RHO 123.
RHO 123 accumulation in the presence of the P-gp inhibitor (IA): simultaneous pre-exposure to compounds (20 μM) and ZOS (5 μM), both prepared in HBSS (+/+), for 30 min at 37 °C, followed by incubation with RHO 123 (5 μM) for 90 min, at 37 °C, in a humidified 5% CO2 and 95% O2 air atmosphere. Control cells were only exposed to ZOS and RHO 123.
After the 90 min of incubation with RHO 123, the cells were washed twice with HBSS (-/-) and lysed with 1% Triton™ X100, for 30 min, in the dark, at room temperature. RHO 123 intracellular fluorescence was then measured at excitation/emission wavelengths of 485/528 nm, in a multi-well plate reader (PowerWave-X, BioTek Instruments, VT, USA) and expressed as fluorescence intensity (FI). The ratio between the FI after inhibited RHO 123 accumulation (IA) and the FI of non-inhibited RHO 123 accumulation (NA) was the parameter used for comparison, and the results were expressed as a percentage of control cells (Equation (3)). Given the high autofluorescence of several of the tested compounds at the conditions used to measure RHO 123 fluorescence, only compounds 9, 10, 12, 13, and 14 were able to be tested for their potential immediate effect on P-gp activity. Four independent experiments were performed, in triplicate.

Caco-2 cells = test: Cytotoxicity in Caco-2 cells, neutral red (NR) uptake assay; type: cell-based, human; conditions: 24 h after exposure
Description: Caco-2 cells were routinely cultured in 75 cm^2 flasks using DMEM with 4.5 g/L glucose supplemented with 10% FBS, 1% NEAA and 1% antibiotic. Cells were maintained at 37 °C, in a 5% CO2 and 95% air atmosphere, and the cell culture medium was changed every 2−3 days. Cultures were passaged weekly by trypsinization (0.25% trypsin/1 mM EDTA). In all experiments, the cells were seeded at a density of 60,000 cells/cm^2 and used three days after seeding, when confluence was reached. The cells used in all experiments were taken between the 55th and 64th passages.
The compounds’ (0−20 μM) cytotoxicity was evaluated by the neutral red (NR) uptake and Sulforhodamine B (SRB) binding assays, 24 h after exposure. Caco-2 cells were seeded onto 96-well plates at a density of 60,000 cells/cm^2 and exposed, after reaching confluence (three days after seeding), to the compounds (0–20 μM), in a fresh cell culture medium. Triton™ X-100 (0.1%) was used as a positive control.
The NR assay is based on the ability of viable cells to incorporate and bind the supravital dye NR into the lysosomes, thus providing a quantitative estimation of the number of viable cells in a culture. Twenty-four hours after exposure to the compounds, the cell culture medium was removed, followed by the addition of fresh cell culture medium containing 50 μg/mL NR, and incubation at 37 °C in a humidified 5% CO2 and 95% air atmosphere, for 90 min. After this incubation period, the cell culture medium was removed, the dye absorbed only by viable cells extracted with absolute ethyl alcohol/distilled water (1:1) with 5% acetic acid, and the absorbance measured at 540 nm in a multiwell plate reader (PowerWaveX BioTek Instruments, VT, USA). The percentage of NR uptake relatively to that of the control cells (0 µM) was used as the cytotoxicity measure. Five independent experiments were performed, in triplicate.

| SMILES | IC50 at 24 h ([1]; NIH/3T3 mouse fibroblast cells) [µM] | P-gp activity (control cells 100%) (P-glycoprotein (P-gp)) | NR uptake (relative to control cells) (Caco-2 cells; 20 µM) | also measured |
| --- | --- | --- | --- | --- |
| CCCOc1ccc(N2CCCCC2)c2c(=O)c3ccccc3sc12 [Compound 3] | – | – | – | IC50 at 24 h [1]: > 100 µM |
| CCCOc1ccc(Nc2nc(C)cc(C)n2)c2c(=O)c3ccccc3sc12 [Compound 8, 1-[(4,6-Dimethylpyrimidin-2-yl)amino]-4-propoxy-9H-thioxanthen-9-one] | > 100 | – | – | – |
| CCCOc1ccc(N2CCNC(=O)C2)c2c(=O)c3ccccc3sc12 [Compound 9, 4-(9-Oxo-4-propoxy-9H-thioxanthen-1-yl)piperazin-2-one] | – | no significant differences | – | – |
| CCCOc1ccc(NCCO)c2c(=O)c3ccccc3sc12 [Compound 10, 1-[(2-Hydroxyethyl)amino]-4-propoxy-9H-thioxanthen-9-one] | – | no significant differences | – | – |
| CCCOc1ccc(NS(=O)(=O)c2ccc(C(=O)O)cc2)c2c(=O)c3ccccc3sc12 [Compound 12, 4-[N-(9-Oxo-4-propoxy-9H-thioxanthen-1-yl)sulfamoyl]benzoic acid] | 64.5 ± 4.54 | 82% | – | – |
| CCCOc1ccc(NS(=O)(=O)c2ccc(N)cc2)c2c(=O)c3ccccc3sc12 [Compound 13, 4-Amino-N-(9-oxo-4-propoxy-9H-thioxanthen-1-yl)benzenesulfonamide] | > 100 | 85% | no significant effect | NR uptake (relative to control cells) (Caco-2 cells; 10 µM): 95.5% |
| CCCOc1ccc(Br)c2c(=O)c3ccccc3sc12 [Compound 14, 1-Bromo-4-propoxy-9H-thioxanthen-9-one] | – | 116% | – | – |
| CCCOc1ccc2ncnc3c2c1Sc1ccccc1-3 [Compound 15] | – | – | 92.2% | – |
| CCCOc1ccc2nc(N)nc3c2c1Sc1ccccc1-3 [Compound 16] | – | – | 94.1% | – |
| CCCOc1ccc2nc(NCc3ccccc3Cl)nc3c2c1Sc1ccccc1-3 [Compound 17] | > 100 | – | 95.5% | – |
